Experimental data from patent publication US10640547B2, “Immunotherapy against melanoma and other cancers” (IMMATICS BIOTECHNOLOGIES GMBH, priority 2016, dated 2020).

Key:
HLA-A*02:01 = HLA-A*02:01 (Homo sapiens, UniProt P04439, D140Y/D185E/D98H/E176V/E277Q/G131W/G231S/I119V/I121R/I166T/I218V/L300P/L318F/N151K/N90K/P208A/P217A/Q86G/Q94H/R138H/R169H/T345S); assay: MHC binding assay (UV-ligand exchange, β2m ELISA); settings: MHC class I binding score; binding to HLA-A*02:01 ranged by peptide exchange yield (UV-ligand exchange, β2m ELISA)
How it was run: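 UV-exchange pMHC monomers, 100-fold diluted → streptavidin capture 1 h 37 °C → HRP anti-β2m 2 ug/ml 1 h 37 °C → TMB, A450. Yield from HLA-A*02:01/MLA-001 monomer standard curve, 15-500 ng/ml. Only stably bound peptides keep β2m-containing complexes intact.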

CD8+ T cells = assay: In vitro immunogenicity: T-cell priming with artificial APCs loaded with peptide/MHC and anti-CD28, pMHC multimer readout; type: cell-based, human; settings: for Wells positive [%]: Table 10B, HLA-A*02 restricted peptides, percentage of positive wells among evaluable; for Donors (in vitro immunogenicity) / Wells (in vitro immunogenicity): Table 10A, HLA class I peptides
Text: In order to obtain information regarding the immunogenicity of the TUMAPs of the present invention, the inventors performed investigations using an in vitro T-cell priming assay based on repeated stimulations of CD8+ T cells with artificial antigen presenting cells (aAPCs) loaded with peptide/MHC complexes and anti-CD28 antibody.
In order to perform in vitro stimulations by artificial antigen presenting cells loaded with peptide-MHC complex (pMHC) and anti-CD28 antibody, the inventors first isolated CD8+ T cells from fresh HLA-A*02 leukapheresis products via positive selection using CD8 microbeads (Miltenyi Biotec, Bergisch-Gladbach, Germany) of healthy donors obtained from the University clinics Mannheim, Germany, after informed consent.
PBMCs and isolated CD8+ lymphocytes were incubated in T-cell medium (TCM) until use consisting of RPMI-Glutamax (Invitrogen, Karlsruhe, Germany) supplemented with 10% heat inactivated human AB serum (PAN-Biotech, Aidenbach, Germany), 100 U/ml Penicillin/100 μg/ml Streptomycin (Cambrex, Cologne, Germany), 1 mM sodium pyruvate (CC Pro, Oberdorla, Germany), 20 μg/ml Gentamycin (Cambrex). 2.5 ng/ml IL-7 (PromoCell, Heidelberg, Germany) and 10 U/ml IL-2 (Novartis Pharma, Nürnberg, Germany) were also added to the TCM at this step.
Generation of pMHC/anti-CD28 coated beads, T-cell stimulations and readout was performed in a highly defined in vitro system using four different pMHC molecules per stimulation condition and 8 different pMHC molecules per readout condition.
The purified co-stimulatory mouse IgG2a anti human CD28 Ab 9.3 (Jung et al., 1987) was chemically biotinylated using Sulfo-N-hydroxysuccinimidobiotin as recommended by the manufacturer (Perbio, Bonn, Germany). Beads used were 5.6 μm diameter streptavidin coated polystyrene particles (Bangs Laboratories, Illinois, USA).
800.000 beads/200 μl were coated in 96-well plates in the presence of 4×12.5 ng different biotin-pMHC, washed and 600 ng biotin anti-CD28 were added subsequently in a volume of 200 μl. Stimulations were initiated in 96-well plates by co-incubating 1×10^6 CD8+ T cells with 2×10^5 washed coated beads in 200 μl TCM supplemented with 5 ng/ml IL-12 (PromoCell) for 3 days at 37° C. Half of the medium was then exchanged by fresh TCM supplemented with 80 U/ml IL-2 and incubating was continued for 4 days at 37° C. This stimulation cycle was performed for a total of three times. For the pMHC multimer readout using 8 different pMHC molecules per condition, a two-dimensional combinatorial coding approach was used as previously described (Andersen et al., 2012) with minor modifications encompassing coupling to 5 different fluorochromes. Finally, multimeric analyses were performed by staining the cells with Live/dead near IR dye (Invitrogen, Karlsruhe, Germany), CD8-FITC antibody clone SK1 (BD, Heidelberg, Germany) and fluorescent pMHC multimers. For analysis, a BD LSRII SORP cytometer equipped with appropriate lasers and filters was used. Peptide specific cells were calculated as percentage of total CD8+ cells. Evaluation of multimeric analysis was done using the FlowJo software (Tree Star, Oregon, USA). In vitro priming of specific multimer+CD8+ lymphocytes was detected by comparing to negative control stimulations.

| Peptide exchange (HLA-A*02:01) | Substance | Wells positive [%] (CD8+ T cells) | Donors (in vitro immunogenicity) (CD8+ T cells) | Wells (in vitro immunogenicity) (CD8+ T cells) |
| --- | --- | --- | --- | --- |
| ++++ (>75% = ++++) | 3 (VLFKDPVSV; listed as Homo sapiens) [compound 3] | + (<20% = +) | – | – |
| ++++ (>75% = ++++) | 4 (KTWDQVPFSV; listed as Homo sapiens) [compound 4] | + (<20% = +) | – | – |
| ++++ (>75% = ++++) | 8 (SIIPYLLEA; listed as Homo sapiens) [compound 8] | ++ (20%-49% = ++) | – | – |
| ++++ (>75% = ++++) | 9 (SLAGLVLYV; listed as Homo sapiens) [compound 9] | ++ (20%-49% = ++) | – | – |
| ++++ (>75% = ++++) | 10 (KMTQYITEL; listed as Homo sapiens) [compound 10] | ++ (20%-49% = ++) | – | – |
| ++++ (>75% = ++++) | 11 (TLIELLLPKL; listed as Homo sapiens) [compound 11] | + (<20% = +) | – | – |
| +++ (>50 = +++) | 12 (RLDDKTTNV; listed as Homo sapiens) [compound 12] | ++ (20%-49% = ++) | – | – |
| ++++ (>75% = ++++) | 13 (IQSETTVTV; listed as Homo sapiens) [compound 13] | ++ (20%-49% = ++) | – | – |
| ++++ (>75% = ++++) | 14 (VLYEMLYGL; listed as Homo sapiens) [compound 14] | +++ (50%-69% = +++) | – | – |
| – | 238 (KLLDKPEQFL; listed as Homo sapiens) [compound 238] | – | ++ (20%-49% = ++) | + (<20% = +) |
| – | 241 (RLYTKLLNEA; listed as Homo sapiens) [compound 241] | – | ++++ (≥70% = ++++) | +++ (50%-69% = +++) |
| – | 243 (ALAGIVTNV; listed as Homo sapiens) [compound 243] | – | ++++ (≥70% = ++++) | + (<20% = +) |
| – | 247 (ALLNAILHSA; listed as Homo sapiens) [compound 247] | – | ++++ (≥70% = ++++) | + (<20% = +) |
| – | 248 (GLFAGLGGAGA; listed as Homo sapiens) [compound 248] | – | ++++ (≥70% = ++++) | + (<20% = +) |
| – | 250 (RVLPPSALQSV; listed as Homo sapiens) [compound 250] | – | +++ (50%-69% = +++) | + (<20% = +) |
| – | 252 (YLLDMPLWYL; listed as Homo sapiens) [compound 252] | – | ++++ (≥70% = ++++) | + (<20% = +) |
| – | 254 (FLMKNSDLYGA; listed as Homo sapiens) [compound 254] | – | ++++ (≥70% = ++++) | + (<20% = +) |
| – | 257 (VLLNEILEQV; listed as Homo sapiens) [compound 257] | – | ++++ (≥70% = ++++) | ++ (20%-49% = ++) |
| – | 262 (KLAVALLAA; listed as Homo sapiens) [compound 262] | – | ++ (20%-49% = ++) | ++ (20%-49% = ++) |
| – | 264 (KVFDEVIEV; listed as Homo sapiens) [compound 264] | – | + (<20% = +) | + (<20% = +) |
| – | 267 (LLTDNVVKL; listed as Homo sapiens) [compound 267] | – | ++++ (≥70% = ++++) | + (<20% = +) |

| Peptide exchange (HLA-A*02:01) | Substance | Wells positive [%] (CD8+ T cells) | Donors (in vitro immunogenicity) (CD8+ T cells) | Wells (in vitro immunogenicity) (CD8+ T cells) |
| --- | --- | --- | --- | --- |
| – | 269 (ALNESLVEC; listed as Homo sapiens) [compound 269] | – | ++++ (≥70% = ++++) | + (<20% = +) |
| – | 271 (SLVQRVETI; listed as Homo sapiens) [compound 271] | – | ++ (20%-49% = ++) | + (<20% = +) |
| – | 277 (KTASINQNV; listed as Homo sapiens) [compound 277] | – | ++++ (≥70% = ++++) | +++ (50%-69% = +++) |
| – | 278 (SLITGQDLLSV; listed as Homo sapiens) [compound 278] | – | ++++ (≥70% = ++++) | + (<20% = +) |
| – | 283 (YTFSGDVQL; listed as Homo sapiens) [compound 283] | – | ++++ (≥70% = ++++) | + (<20% = +) |
| – | 287 (KISDFGLATV; listed as Homo sapiens) [compound 287] | – | ++++ (≥70% = ++++) | ++ (20%-49% = ++) |
| – | 292 (ALGDKFLLRV; listed as Homo sapiens) [compound 292] | – | ++++ (≥70% = ++++) | + (<20% = +) |
| – | 294 (FLLAEDTKV; listed as Homo sapiens) [compound 294] | – | ++++ (≥70% = ++++) | ++ (20%-49% = ++) |
| – | 298 (KLQEEIPVL; listed as Homo sapiens) [compound 298] | – | ++++ (≥70% = ++++) | + (<20% = +) |
| – | 308 (KLLSDPNYGV; listed as Homo sapiens) [compound 308] | – | ++++ (≥70% = ++++) | + (<20% = +) |
| – | 310 (ALASVIKEL; listed as Homo sapiens) [compound 310] | – | ++ (20%-49% = ++) | + (<20% = +) |
| – | 315 (KLSWDLIYL; listed as Homo sapiens) [compound 315] | – | ++++ (≥70% = ++++) | ++ (20%-49% = ++) |
| – | 318 (SIIEYLPTL; listed as Homo sapiens) [compound 318] | – | ++++ (≥70% = ++++) | + (<20% = +) |
| – | 320 (KIIGIMEEV; listed as Homo sapiens) [compound 320] | – | ++++ (≥70% = ++++) | ++++ (≥70% = ++++) |
| – | 321 (YLPTFFLTV; listed as Homo sapiens) [compound 321] | – | +++ (50%-69% = +++) | ++ (20%-49% = ++) |
| – | 322 (SLHFLILYV; listed as Homo sapiens) [compound 322] | – | +++ (50%-69% = +++) | ++ (20%-49% = ++) |
| – | 323 (VVDKTLLLV; listed as Homo sapiens) [compound 323] | – | ++++ (≥70% = ++++) | +++ (50%-69% = +++) |
| – | 326 (ALSGTLSGV; listed as Homo sapiens) [compound 326] | – | ++++ (≥70% = ++++) | + (<20% = +) |
| – | 328 (SLSQELVGV; listed as Homo sapiens) [compound 328] | – | ++ (20%-49% = ++) | + (<20% = +) |
| – | 332 (AVVEFLTSV; listed as Homo sapiens) [compound 332] | – | ++ (20%-49% = ++) | + (<20% = +) |
| – | 336 (YVDPVITSI; listed as Homo sapiens) [compound 336] | – | ++++ (≥70% = ++++) | ++ (20%-49% = ++) |
